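Tested at 5 concentrations; 48 h exposure; 96-well plates; endpoints linearly interpolated, else capped at highest concentration. GI50: concentration for 50% inhibition of growth.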 Active and inactive are the calls of the source. Cut-off read from the data, not from the text of the source: active = GI50 up to about 1.1 µM and inactive = higher.
Experiments:
Assay in all cases: growth of human tumour cells (NCI), 48 h
Malme-3M = tested on: Malme-3M
DMS-273 = tested on: DMS-273
UACC-62 = tested on: UACC-62
SK-OV-3 = tested on: SK-OV-3
HT-29 = tested on: HT-29
SNB-19 = tested on: SNB-19
A549 = tested on: A549
RXF 393 = tested on: RXF 393
HOP-62 = tested on: HOP-62
HCT-116 = tested on: HCT-116
XF498 = tested on: XF498
NCI-H23 = tested on: NCI-H23
HCT-15 = tested on: HCT-15
HL-60 = tested on: HL-60
CAKI-1 = tested on: CAKI-1
SNB-78 = tested on: SNB-78
SR = tested on: SR
IGROV-1 = tested on: IGROV-1
ACHN = tested on: ACHN
SK-MEL-28 = tested on: SK-MEL-28
NCI-H226 = tested on: NCI-H226
SF-539 = tested on: SF-539
NCI-H460 = tested on: NCI-H460
COLO 205 = tested on: COLO 205
DLD-1 = tested on: DLD-1
U-251 = tested on: U-251
CCRF-CEM = tested on: CCRF-CEM
SK-MEL-5 = tested on: SK-MEL-5
LXFL 529 = tested on: LXFL 529
OVCAR-3 = tested on: OVCAR-3
SNB-75 = tested on: SNB-75
SF-268 = tested on: SF-268
K562 = tested on: K562
SF-295 = tested on: SF-295
HOP-92 = tested on: HOP-92
SW-620 = tested on: SW-620
SN12C = tested on: SN12C
DMS-114 = tested on: DMS-114
KM12 = tested on: KM12
SK-MEL-2 = tested on: SK-MEL-2
UACC-257 = tested on: UACC-257
RPMI-8226 = tested on: RPMI-8226
A498 = tested on: A498
UO-31 = tested on: UO-31
HOP-18 = tested on: HOP-18
TK-10 = tested on: TK-10
OVCAR-8 = tested on: OVCAR-8
786-0 = tested on: 786-0
LOX IMVI = tested on: LOX IMVI
RXF 631 = tested on: RXF 631
HCC 2998 = tested on: HCC 2998
M19-MEL = tested on: M19-MEL
OVCAR-5 = tested on: OVCAR-5
KM-20L2 = tested on: KM-20L2
MOLT-4 = tested on: MOLT-4
EKVX = tested on: EKVX
OVCAR-4 = tested on: OVCAR-4
M14 = tested on: M14
NCI-H522 = tested on: NCI-H522

For `CCCCCCCCCCCCOC(=N)N1CCOCC1`, which GI50 (Malme-3M) is on record?
The GI50 was 19 µM (inactive).

And the GI50 (DMS-273)?
Its GI50 is 9.55 µM (inactive).

What about the GI50 (UACC-62) of the same compound?
Its GI50 is 9.77 µM (inactive).

What about the GI50 (SK-OV-3) of the same compound?
Its GI50 is 17 µM (inactive).

What about the GI50 (HT-29) of the same compound?
The GI50 was 1.82 µM (inactive).

And the GI50 (SNB-19)?
The GI50 was 18.5 µM (inactive).

What about the GI50 (A549) of the same compound?
The GI50 was 15.8 µM (inactive).

And the GI50 (RXF 393)?
The GI50 was 8.99 µM (inactive).

And the GI50 (HOP-62)?
The GI50 was 17.3 µM (inactive).

What about the GI50 (HCT-116) of the same compound?
Its GI50 is 8.39 µM (inactive).

And the GI50 (XF498)?
Its GI50 is 13.3 µM (inactive).

What about the GI50 (NCI-H23) of the same compound?
The GI50 was 13.4 µM (inactive).

And the GI50 (HCT-15)?
The GI50 was 4.08 µM.

And the GI50 (HL-60)?
The GI50 was 1.55 µM (inactive).

What about the GI50 (CAKI-1) of the same compound?
The GI50 was 4.13 µM (inactive).

And the GI50 (SNB-78)?
The GI50 was 6.59 µM (inactive).

And the GI50 (SR)?
The GI50 was 1.56 µM (inactive).

What about the GI50 (IGROV-1) of the same compound?
Its GI50 is 12.6 µM (inactive).

And the GI50 (ACHN)?
Its GI50 is 14.2 µM (inactive).

And the GI50 (SK-MEL-28)?
The GI50 was 12.2 µM (inactive).

And the GI50 (NCI-H226)?
Its GI50 is 20.7 µM (inactive).

And the GI50 (SF-539)?
The GI50 was 0.982 µM (active).

What about the GI50 (NCI-H460) of the same compound?
The GI50 was 15 µM (inactive).

What about the GI50 (COLO 205) of the same compound?
The GI50 was 1.75 µM (inactive).

And the GI50 (DLD-1)?
Its GI50 is 3.3 µM (inactive).

What about the GI50 (U-251) of the same compound?
The GI50 was 9.46 µM (inactive).

And the GI50 (CCRF-CEM)?
The GI50 was 2.26 µM (inactive).

And the GI50 (SK-MEL-5)?
Its GI50 is 11 µM (inactive).

What about the GI50 (LXFL 529) of the same compound?
Its GI50 is 4.06 µM (inactive).

And the GI50 (OVCAR-3)?
Its GI50 is 14.9 µM (inactive).

And the GI50 (SNB-75)?
The GI50 was 13.7 µM (inactive).

And the GI50 (SF-268)?
The GI50 was 15 µM (inactive).

And the GI50 (K562)?
The GI50 was 1.88 µM (inactive).

And the GI50 (SF-295)?
Its GI50 is 17 µM (inactive).

What about the GI50 (HOP-92) of the same compound?
Its GI50 is 1.32 µM (inactive).

And the GI50 (SW-620)?
Its GI50 is 4.11 µM (inactive).

And the GI50 (SN12C)?
Its GI50 is 4.39 µM (inactive).

What about the GI50 (DMS-114) of the same compound?
Its GI50 is 6.7 µM (inactive).

And the GI50 (KM12)?
Its GI50 is 5.53 µM (inactive).

What about the GI50 (SK-MEL-2) of the same compound?
Its GI50 is 9.51 µM (inactive).

What about the GI50 (UACC-257) of the same compound?
The GI50 was 9.35 µM (inactive).

And the GI50 (RPMI-8226)?
Its GI50 is 1.87 µM (inactive).

And the GI50 (A498)?
Its GI50 is 6.59 µM (inactive).

What about the GI50 (UO-31) of the same compound?
The GI50 was 13.5 µM (inactive).

And the GI50 (HOP-18)?
The GI50 was 2 µM (inactive).

And the GI50 (TK-10)?
The GI50 was 16.8 µM (inactive).

And the GI50 (OVCAR-8)?
Its GI50 is 16.4 µM (inactive).

And the GI50 (786-0)?
Its GI50 is 14.1 µM (inactive).

What about the GI50 (LOX IMVI) of the same compound?
Its GI50 is 14.5 µM (inactive).

What about the GI50 (RXF 631) of the same compound?
Its GI50 is 8.18 µM (inactive).

And the GI50 (HCC 2998)?
Its GI50 is 10.5 µM (inactive).

And the GI50 (M19-MEL)?
The GI50 was 5.22 µM (inactive).

And the GI50 (OVCAR-5)?
Its GI50 is 14.9 µM (inactive).

What about the GI50 (KM-20L2) of the same compound?
Its GI50 is 3.43 µM (inactive).

What about the GI50 (MOLT-4) of the same compound?
Its GI50 is 2 µM (inactive).

What about the GI50 (EKVX) of the same compound?
Its GI50 is 12.9 µM (inactive).

And the GI50 (OVCAR-4)?
Its GI50 is 7.62 µM (inactive).

And the GI50 (M14)?
Its GI50 is 3.95 µM (inactive).

And the GI50 (NCI-H522)?
Its GI50 is 14.6 µM (inactive).

Which GI50 (Malme-3M) does the source give for `C/C(=N\NC(=N)N)C(CN(CC(C)C)CC(C)C)C(=O)Nc1ccc(C)cc1C` (configuration not stated) here?
The GI50 was > 100 µM (inactive).

And the GI50 (DMS-273)?
Its GI50 is > 100 µM (inactive).

What about the GI50 (UACC-62) of the same compound?
Its GI50 is > 100 µM (inactive).

What about the GI50 (SK-OV-3) of the same compound?
The GI50 was > 100 µM (inactive).

What about the GI50 (HT-29) of the same compound?
The GI50 was > 100 µM (inactive).

And the GI50 (SNB-19)?
The GI50 was > 100 µM (inactive).

And the GI50 (A549)?
Its GI50 is > 100 µM (inactive).

What about the GI50 (RXF 393) of the same compound?
The GI50 was > 100 µM (inactive).

What about the GI50 (HOP-62) of the same compound?
Its GI50 is > 100 µM (inactive).

And the GI50 (HCT-116)?
The GI50 was > 100 µM (inactive).

And the GI50 (XF498)?
The GI50 was 59.6 µM (inactive).

And the GI50 (NCI-H23)?
Its GI50 is > 100 µM (inactive).

What about the GI50 (HCT-15) of the same compound?
The GI50 was over 100 µM.

And the GI50 (HL-60)?
The GI50 was 91.8 µM (inactive).

What about the GI50 (CAKI-1) of the same compound?
The GI50 was > 100 µM (inactive).

And the GI50 (SNB-78)?
Its GI50 is > 100 µM (inactive).

What about the GI50 (SR) of the same compound?
The GI50 was > 100 µM (inactive).

And the GI50 (IGROV-1)?
Its GI50 is > 100 µM (inactive).

And the GI50 (ACHN)?
Its GI50 is > 100 µM (inactive).

And the GI50 (SK-MEL-28)?
The GI50 was > 100 µM (inactive).

What about the GI50 (NCI-H226) of the same compound?
Its GI50 is > 100 µM (inactive).

What about the GI50 (SF-539) of the same compound?
Its GI50 is > 100 µM (inactive).

What about the GI50 (NCI-H460) of the same compound?
Its GI50 is > 100 µM (inactive).

And the GI50 (COLO 205)?
Its GI50 is > 100 µM (inactive).

And the GI50 (DLD-1)?
The GI50 was > 100 µM (inactive).

And the GI50 (U-251)?
Its GI50 is > 100 µM (inactive).

What about the GI50 (CCRF-CEM) of the same compound?
The GI50 was > 100 µM (inactive).

And the GI50 (SK-MEL-5)?
The GI50 was > 100 µM (inactive).

What about the GI50 (LXFL 529) of the same compound?
The GI50 was > 100 µM (inactive).

And the GI50 (OVCAR-3)?
The GI50 was > 100 µM (inactive).

What about the GI50 (SNB-75) of the same compound?
Its GI50 is > 100 µM (inactive).

And the GI50 (SF-268)?
Its GI50 is > 100 µM (inactive).

What about the GI50 (K562) of the same compound?
Its GI50 is > 100 µM (inactive).

And the GI50 (SF-295)?
Its GI50 is > 100 µM (inactive).

And the GI50 (HOP-92)?
The GI50 was 59.2 µM (inactive).

And the GI50 (SW-620)?
The GI50 was > 100 µM (inactive).

And the GI50 (SN12C)?
The GI50 was > 100 µM (inactive).

What about the GI50 (DMS-114) of the same compound?
Its GI50 is > 100 µM (inactive).

And the GI50 (KM12)?
Its GI50 is > 100 µM (inactive).

And the GI50 (SK-MEL-2)?
The GI50 was > 100 µM (inactive).

And the GI50 (UACC-257)?
The GI50 was > 100 µM (inactive).

What about the GI50 (A498) of the same compound?
The GI50 was > 100 µM (inactive).

What about the GI50 (UO-31) of the same compound?
Its GI50 is 54.7 µM (inactive).

What about the GI50 (HOP-18) of the same compound?
Its GI50 is > 100 µM (inactive).

And the GI50 (TK-10)?
The GI50 was > 100 µM (inactive).

What about the GI50 (OVCAR-8) of the same compound?
The GI50 was > 100 µM (inactive).

And the GI50 (786-0)?
Its GI50 is > 100 µM (inactive).

And the GI50 (LOX IMVI)?
Its GI50 is > 100 µM (inactive).

What about the GI50 (RXF 631) of the same compound?
Its GI50 is > 100 µM (inactive).

And the GI50 (HCC 2998)?
The GI50 was > 100 µM (inactive).

And the GI50 (M19-MEL)?
Its GI50 is > 100 µM (inactive).

What about the GI50 (OVCAR-5) of the same compound?
The GI50 was > 100 µM (inactive).

And the GI50 (KM-20L2)?
The GI50 was > 100 µM (inactive).

And the GI50 (MOLT-4)?
Its GI50 is > 100 µM (inactive).

And the GI50 (EKVX)?
The GI50 was 81.5 µM (inactive).

And the GI50 (OVCAR-4)?
The GI50 was > 100 µM (inactive).

What about the GI50 (M14) of the same compound?
The GI50 was > 100 µM (inactive).

What about the GI50 (NCI-H522) of the same compound?
Its GI50 is > 100 µM (inactive).

Source: ChEMBL document CHEMBL1201862, “PubChem BioAssay data set” (2004)
